# In patent US20240208992A1, “MACROCYCLES AS CFTR MODULATORS” (Idorsia Pharmaceuticals Ltd, priority 2021, published 2024):
# pEC50: −log10 of the molar value.
# Molecular target: human F508del-CFTR (Homo sapiens, UniProt P13569, DEL508-508)
# Assay: F508del-CFTR cell surface expression (corrector activity), DiscoveRx ß-galactosidase complementation chemiluminescence assay in recombinant U2OS cell line;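 note: U2OS cells co-expressing ProLink-tagged F508del-CFTR and a membrane-anchored enzyme acceptor, where more surface CFTR restores β-galactosidase activity measured by chemiluminescence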
# Details: for pEC50: EC50, F508del-CFTR cell surface expression; for Emax: U2OS
# [1] = U2OS cells, 16h compound incubation, geomean values
# [2] = in relation to Emax of corrector lumacaftor (=100%), arithmetic mean values
# [3] = U2OS cells, 16h compound incubation, geomean of several measurements
# [4] = in relation to the Emax of the corrector lumacaftor (=100%), U2OS cells, 16h compound incubation, arithmetic mean
# human F508del-CFTR, sequence (P13569 with tags, fused parts or gaps DEL508-508): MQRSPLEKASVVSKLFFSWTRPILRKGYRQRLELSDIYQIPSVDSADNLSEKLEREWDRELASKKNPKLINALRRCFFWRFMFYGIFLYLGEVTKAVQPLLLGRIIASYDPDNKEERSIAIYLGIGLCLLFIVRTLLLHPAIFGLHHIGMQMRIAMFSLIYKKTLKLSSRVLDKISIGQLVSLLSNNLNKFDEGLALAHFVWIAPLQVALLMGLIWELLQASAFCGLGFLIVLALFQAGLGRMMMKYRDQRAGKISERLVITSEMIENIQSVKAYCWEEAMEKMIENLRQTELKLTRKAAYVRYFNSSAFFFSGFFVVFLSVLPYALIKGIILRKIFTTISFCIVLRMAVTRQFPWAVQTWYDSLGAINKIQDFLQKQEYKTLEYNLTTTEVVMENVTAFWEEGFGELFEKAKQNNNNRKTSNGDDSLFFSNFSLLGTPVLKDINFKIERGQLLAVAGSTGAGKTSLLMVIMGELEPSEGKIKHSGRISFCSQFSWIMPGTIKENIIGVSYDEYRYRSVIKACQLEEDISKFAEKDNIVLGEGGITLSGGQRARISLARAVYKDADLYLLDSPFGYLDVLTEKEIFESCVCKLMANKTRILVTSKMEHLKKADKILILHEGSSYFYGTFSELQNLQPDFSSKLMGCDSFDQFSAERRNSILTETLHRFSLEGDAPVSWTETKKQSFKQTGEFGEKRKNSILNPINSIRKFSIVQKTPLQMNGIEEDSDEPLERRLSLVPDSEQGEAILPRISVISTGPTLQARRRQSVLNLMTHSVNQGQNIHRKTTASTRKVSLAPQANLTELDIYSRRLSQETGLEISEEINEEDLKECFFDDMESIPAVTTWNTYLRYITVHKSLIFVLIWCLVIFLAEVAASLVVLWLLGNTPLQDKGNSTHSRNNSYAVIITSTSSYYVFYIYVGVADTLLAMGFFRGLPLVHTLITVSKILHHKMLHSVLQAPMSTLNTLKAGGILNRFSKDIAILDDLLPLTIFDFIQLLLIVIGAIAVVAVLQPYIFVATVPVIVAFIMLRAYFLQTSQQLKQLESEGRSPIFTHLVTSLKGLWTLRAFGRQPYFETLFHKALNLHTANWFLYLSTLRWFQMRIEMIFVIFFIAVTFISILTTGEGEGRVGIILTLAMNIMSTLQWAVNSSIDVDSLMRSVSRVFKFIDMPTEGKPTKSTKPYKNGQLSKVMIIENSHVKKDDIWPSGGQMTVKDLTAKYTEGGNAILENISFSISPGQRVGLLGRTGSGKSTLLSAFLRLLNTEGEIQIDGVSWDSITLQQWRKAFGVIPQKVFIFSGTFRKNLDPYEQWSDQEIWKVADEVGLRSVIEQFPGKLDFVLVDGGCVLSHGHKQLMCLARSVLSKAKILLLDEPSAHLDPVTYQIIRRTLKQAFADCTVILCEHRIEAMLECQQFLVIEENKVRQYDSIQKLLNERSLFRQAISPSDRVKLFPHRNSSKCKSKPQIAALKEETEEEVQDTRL
Compound,pEC50 [1],Emax [2],pEC50 [3],Emax [4],also measured
"COc1nc(C)cc2c1C(=O)N[C@H](C(=O)NCCc1cc(C)no1)CC(=O)N(C)[C@@H](CC(C)C)C(=O)N(C)[C@H](CC(F)F)C(=O)N[C@H](Cc1ccccc1)CO2 [Example 775, (3R,6R,9S,13S)-3-benzyl-6-(2,2-difluoroethyl)-9-isobutyl-16-methoxy-7,10,18-trimethyl-N-(2-(3-methylisoxazol-5-yl)ethyl)-5,8,11,15-tetraoxo-2,3,4,5,6,7,8,9,10,11,12,13,14,15-tetradecahydropyrido[3,4-p][1]oxa[4,7,10,14]tetraazacycloheptadecine-13-carboxamide]",6.06,359%,–,–,–
"CC(C)C[C@H]1C(=O)N(C)[C@H](Cc2nc(-c3ccc(F)cn3)no2)C(=O)N[C@H](Cc2ccccc2)COc2ccc3ncc(F)cc3c2C(=O)N[C@H](C(=O)NCCc2nc(C3CC3)no2)CC(=O)N1C [Example 808, (3S,7S,10R,13R)-13-benzyl-N-(2-(3-cyclopropyl-1,2,4-oxadiazol-5-yl)ethyl)-20-fluoro-10-((3-(5-fluoropyridin-2-yl)-1,2,4-oxadiazol-5-yl)methyl)-7-isobutyl-6,9-dimethyl-1,5,8,11-tetraoxo-1,2,3,4,5,6,7,8,9,10,11,12,13,14-tetradecahydro-[1]oxa[4,7,10,14]tetraazacycloheptadecino[16,17-f]quinoline-3-carboxamide]",–,–,6.94,399%,–
"COc1nccc2c1C(=O)N[C@H](C(=O)NCCc1cc(C)no1)CC(=O)N(C)[C@@H](CC(C)C)C(=O)N1CCN(c3ccccc3)C[C@H]1C(=O)N[C@H](Cc1ccccc1)CO2 [Example 550, (7S,11S,20R,22aS)-20-benzyl-7-isobutyl-14-methoxy-8-methyl-N-(2-(3-methylisoxazol-5-yl)ethyl)-6,9,13,22-tetraoxo-2-phenyl-1,3,4,6,7,8,9,10,11,12,13,19,20,21,22,22a-hexadecahydro-2H-pyrazino[2,1-f]pyrido[3,4-p][1]oxa[4,7,10,14]tetraazacycloheptadecine-11-carboxamide]",6.16,129%,–,–,–
"COc1nccc2c1C(=O)N[C@H](C(=O)NCCc1nc(C(F)(F)F)no1)CC(=O)N(C)[C@@H](CC(C)C)C(=O)N1CCCC[C@@H]1C(=O)N[C@H](Cc1ccccc1)CO2 [Example 178, (7S,11S,17aR,20R)-20-benzyl-11-isobutyl-4-methoxy-10-methyl-5,9,12,18-tetraoxo-N-(2-(3-(trifluoromethyl)-1,2,4-oxadiazol-5-yl)ethyl)-5,6,7,8,9,10,11,12,15,16,17,17a,18,19,20,21-hexadecahydro-14H-dipyrido[2,1-f:3′,4′-p][1]oxa[4,7,10,14]tetraazacycloheptadecine-7-carboxamide]",–,–,–,–,"pEC50 (U2OS cell line, 16h compound incubation, geomean values): 6.17; Emax (in relation to the Emax of the corrector lumacaftor (=100%), U2OS cell line, 16h compound incubation, arithmetic mean values): 237%"
"Cc1cc(CCNC(=O)[C@@H]2CC(=O)N(C)[C@@H](CC(C)C)C(=O)N3CCCC[C@@H]3C(=O)N[C@H](Cc3ccccc3)COc3nc4ccccn4c3C(=O)N2)on1 [Example 470, (7S,11S,22R,24aR)-22-benzyl-7-isobutyl-8-methyl-N-(2-(3-methylisoxazol-5-yl)ethyl)-6,9,13,24-tetraoxo-1,3,4,6,7,8,9,10,11,12,13,21,22,23,24,24a-hexadecahydro-2H-pyrido[2,1-f]pyrido[2′,1′:2,3]imidazo[4,5-p][1]oxa[4,7,10,14]tetraazacycloheptadecine-11-carboxamide]",6.18,169%,–,–,–
"COc1noc(CCNC(=O)[C@@H]2CC(=O)N(C)[C@@H](CC(C)C)C(=O)N(C)C3(CC(F)(F)C3)C(=O)N[C@H](Cc3ccccc3)COc3ccc4ncc(F)cc4c3C(=O)N2)n1 [Example 922, (3′S,7′S,13′R)-13′-benzyl-3,3,20′-trifluoro-7′-isobutyl-N-(2-(3-methoxy-1,2,4-oxadiazol-5-yl)ethyl)-6′,9′-dimethyl-1′,5′,8′,11′-tetraoxo-2′,3′,4′,5′,6′,7′,8′,9′,11′,12′,13′,14′-dodecahydro-1′H-spiro[cyclobutane-1,10′-[1]oxa[4,7,10,14]tetraazacycloheptadecino[16,17-f]quinoline]-3′-carboxamide]",–,–,6.52,396%,–
